This test deals with T1, SIRT7 protein (Homo sapiens, UniProt Q9NRC8).
T1 construct: purchased SignalChem S41-30H
T1 sequence (Q9NRC8 1-400): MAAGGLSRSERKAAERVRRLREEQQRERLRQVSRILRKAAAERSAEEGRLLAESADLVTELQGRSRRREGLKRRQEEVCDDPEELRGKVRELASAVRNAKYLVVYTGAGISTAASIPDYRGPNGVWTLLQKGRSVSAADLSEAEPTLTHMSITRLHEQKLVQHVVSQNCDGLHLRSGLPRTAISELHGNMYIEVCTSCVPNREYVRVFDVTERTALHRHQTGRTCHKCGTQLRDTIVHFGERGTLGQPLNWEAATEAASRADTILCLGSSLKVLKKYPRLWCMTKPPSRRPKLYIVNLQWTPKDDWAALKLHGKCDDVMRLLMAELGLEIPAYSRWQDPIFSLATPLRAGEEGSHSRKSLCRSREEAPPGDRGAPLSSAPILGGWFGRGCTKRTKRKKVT
The test can be described thus: SIRT Glo assay, inhibitory activity against Sirt7. Format: biochemical. The note with it: 10 μM compound. The procedure:
Promega's Cat. No. 6450 SIRT Glo assay kit was used, and as the target SIRT7 protein, No. S41-30H protein of SignalChem's Cat. was used. Prepare the compound by diluting it in SIRT Glo buffer in advance to a concentration twice as thick as the final concentration. For the positive control group of white 384 well plate (Greiner Bioone, white, small volume, Cat. No. 874075), and for compound group, dilute sirt7 protein in SIRT Glo buffer and dispense by 5 μL to contain 20 ng per well. In the background control group, 10 μL of SIRT Glo buffer is dispensed.
After adding 5 μL of SIRT Glo buffer to the positive control group, and 5 μL of the diluted compound to the compound group, react for 30 minutes. After making the substrate provided in the SIRT Glo assay, adding 10 μL each, and reacting for 1 hour, the luciferase activity is measured with a microplate reader (Molecular Device, spectramax i3).
Subtract the luciferase level of the background control group in all wells. The % inhibition of the compound was used to obtain the compound's rate of inhibitory activity against sirt7 in the following:
% inhibition=100−(compound group/positive control group)×100.
Consider `O=C(Nc1nc2ccccc2s1)c1ccc(CN2CCN(S(=O)(=O)c3ccc(C(F)(F)F)cc3)CC2)cc1` [Compound 1-36, N-(benzo[d]thiazol-2-yl)-4-((4-((4-(trifluoromethyl)phenyl)sulfonyl)piperazin-1-yl)methyl)benzamide], for which at 10 µM the inhibition was 15%.
Then `O=C(Nc1nc2ccccc2s1)c1ccc(CN2CCN(C(=O)Nc3ccccc3)CC2)cc1` [Compound 1-38, 4-(4-(benzo[d]thiazol-2-ylcarbamoyl)benzyl)-N-phenylpiperazine-1-carboxamide], with 98%.
The figure for `O=C(Nc1nc2ccccc2s1)c1ccc(CN2CCN(C(=O)Nc3ccc(C(F)(F)F)cc3)CC2)cc1` [Compound 1-39, 4-(4-(benzo[d]thiazol-2-ylcarbamoyl)benzyl)-N-(4-(trifluoromethyl)phenyl)piperazine-1-carboxamide] is 87%; for `CC(C)NC(=O)N1CCN(Cc2ccc(C(=O)Nc3nc4ccccc4s3)cc2)CC1` [Compound 1-40, 4-(4-(benzo[d]thiazol-2-ylcarbamoyl)benzyl)-N-isopropylpiperazine-1-carboxamide] it is 87%.
The figure for `O=C(Nc1nc2ccccc2s1)c1ccc(CN2CCN(C(=O)NC34CC5CC(CC(C5)C3)C4)CC2)cc1` [Compound 1-41] is 66%; for `COc1ccc(NC(=O)N2CCN(Cc3ccc(C(=O)Nc4nc5ccccc5s4)cc3)CC2)cc1` [Compound 1-42, 4-(4-(benzo[d]thiazol-2-ylcarbamoyl)benzyl)-N-(4-methoxyphenyl)piperazine-1-carboxamide] it is 89%; for `O=C(Nc1nc2ccccc2s1)c1ccc(CN2CCN(C(=O)Nc3ccccc3C(F)(F)F)CC2)cc1` [Compound 1-43, 4-(4-(benzo[d]thiazol-2-ylcarbamoyl)benzyl)-N-(2-(trifluoromethyl)phenyl)piperazine-1-carboxamide] it is 79%.
Regarding `O=C(Nc1nc2ccccc2s1)c1ccc(CN2CCN(C(=O)Nc3ccc(F)cc3)CC2)cc1` [Compound 1-44, 4-(4-(benzo[d]thiazol-2-ylcarbamoyl)benzyl)-N-(4-fluorophenyl)piperazine-1-carboxamide], 10 µM produced 95% inhibition.
The figure for `O=C(Nc1nc2ccccc2s1)c1ccc(CN2CCN(C(=O)Nc3ccccc3F)CC2)cc1` [Compound 1-45, 4-(4-(benzo[d]thiazol-2-ylcarbamoyl)benzyl)-N-(2-fluorophenyl)piperazine-1-carboxamide] is 96%.
The figure for `O=C(Nc1nc2ccccc2s1)c1ccc(CN2CCN(C(=O)Nc3ccc4c(c3)CCC4)CC2)cc1` [Compound 1-46, 4-(4-(benzo[d]thiazol-2-ylcarbamoyl)benzyl)-N-(2,3-dihydro-1H-inden-5-yl)piperazine-1-carboxamide] is 84%.
The figure for `Cc1cc(C)cc(NC(=O)N2CCN(Cc3ccc(C(=O)Nc4nc5ccccc5s4)cc3)CC2)c1` [Compound 1-47, 4-(4-(benzo[d]thiazol-2-ylcarbamoyl)benzyl)-N-(3,5-dimethyphenyl)piperazine-1-carboxamide] is 88%; for `CCCCOC(=O)CNC(=O)N1CCN(Cc2ccc(C(=O)Nc3nc4ccccc4s3)cc2)CC1` [Compound 1-48, butyl-(4-(4-(benzo[d]thiazol-2-ylcarbamoyl)benzyl)piperazine-1-carbonyl)glycinate] it is 54%; for `O=C(Nc1nc2ccccc2s1)c1ccc(CN2CCN(C(=O)Nc3ccc(Cl)cc3)CC2)cc1` [Compound 1-49, 4-(4-(benzo[d]thiazol-2-ylcarbamoyl)benzyl)-N-(4-chlorophenyl)piperazine-1-carboxamide] it is 89%.
In the case of `CCc1ccccc1NC(=O)N1CCN(Cc2ccc(C(=O)Nc3nc4ccccc4s3)cc2)CC1` [Compound 1-50, 4-(4-(benzo[d]thiazol-2-ylcarbamoyl)benzyl)-N-(2-ethylphenyl)piperazine-1-carboxamide], the inhibition – broadly, the change of the read-out against control, counted positive when it falls – at 10 µM was determined as 61%.
Then `Cc1ccc(NC(=O)N2CCN(Cc3ccc(C(=O)Nc4nc5ccccc5s4)cc3)CC2)cc1` [Compound 1-51, 4-(4-(benzo[d]thiazol-2-ylcarbamoyl)benzyl)-N-(p-tolyl)piperazine-1-carboxamide], with 90%.
Then `CCc1ccc(NC(=O)N2CCN(Cc3ccc(C(=O)Nc4nc5ccccc5s4)cc3)CC2)cc1` [Compound 1-52, 4-(4-(benzo[d]thiazol-2-ylcarbamoyl)benzyl)-N-(4-ethylphenyl)piperazine-1-carboxamide], with 85%; and `O=C(Nc1nc2ccccc2s1)c1ccc(CN2CCN(C(=O)NC3CCCCC3)CC2)cc1` [Compound 1-53, 4-(4-(benzo[d]thiazol-2-ylcarbamoyl)benzyl)-N-cyclohexylpiperazine-1-carboxamide], with 97%.
The figure for `O=C(Nc1nc2ccccc2s1)c1ccc(CN2CCN(C(=O)NCCl)CC2)cc1` [Compound 1-54, 4-(4-(benzo[d]thiazol-2-ylcarbamoyl)benzyl)-N-(chloromethyl)piperazine-1-carboxamide] is 100%.
Molecule `CCCNC(=O)N1CCN(Cc2ccc(C(=O)Nc3nc4ccccc4s3)cc2)CC1` [Compound 1-55, 4-(4-(benzo[d]thiazol-2-ylcarbamoyl)benzyl)-N-propylpiperazine-1-carboxamide] came in with an inhibition at 10 µM of 100%.
In turn, `CCOc1ccccc1NC(=O)N1CCN(Cc2ccc(C(=O)Nc3nc4ccccc4s3)cc2)CC1` [Compound 1-56, 4-(4-(benzo[d]thiazol-2-ylcarbamoyl)benzyl)-N-(2-ethoxyphenyl)piperazine-1-carboxamide] had an inhibition at 10 µM of 87%.
In turn, `CC(C)(C)CC(C)(C)NC(=O)N1CCN(Cc2ccc(C(=O)Nc3nc4ccccc4s3)cc2)CC1` [Compound 1-57, 4-(4-(benzo[d]thiazol-2-ylcarbamoyl)benzyl)-N-(2,4,4-trimethylpentan-2-yl)piperazine-1-carboxamide] returned an inhibition at 10 µM of 12%.
The figure for `O=C(Nc1nc2ccccc2s1)c1ccc(CN2CCN(C(=O)Nc3ccccc3Br)CC2)cc1` [Compound 1-58, 4-(4-(benzo[d]thiazol-2-ylcarbamoyl)benzyl)-N-(2-bromophenyl)piperazine-1-carboxamide] is 87%; for `CCC(=O)N1CCN(Cc2ccc(C(=O)Nc3nc4ccccc4s3)cc2)CC1` [Compound 1-59, N-(benzo[d]thiazol-2-yl)-4-((4-propionylpiperazin-1-yl)methyl)benzamide] it is 5%.
`O=C(Nc1nc2ccccc2s1)c1ccc(CN2CCN(C(=O)c3ccccc3)CC2)cc1` [Compound 1-60, N-(benzo[d]thiazol-2-yl)-4-((4-benzoylpiperazin-1-yl)methyl)benzamide] gave an inhibition at 10 µM of 7%.
`CCN1CCN(Cc2ccc(C(=O)Nc3nc4ccccc4s3)cc2)CC1` [Compound 1-61, N-(benzo[d]thiazol-2-yl)-4-((4-ethylpiperazin-1-yl)methyl)benzamide] came in with an inhibition at 10 µM of 3%.
The molecule `O=C(Nc1nc2ccccc2s1)c1ccc(CN2CCN(Cc3ccccc3)CC2)cc1` [Compound 1-62, N-(benzo[d]thiazol-2-yl)-4-((4-benzylpiperazin-1-yl)methyl)benzamide] yielded an inhibition at 10 µM of 7%.
In the case of `CC(C)(C)OC(=O)N1CCC(=Cc2ccc(C(=O)Nc3nc4ccccc4s3)cc2)CC1` [Compound 1-63, tert-butyl 4-(4-(benzo[d]thiazol-2-ylcarbamoyl)benzylidene)piperidine-1-carboxylate], the inhibition at 10 µM came to 10%.
Then `CC(C)(C)OC(=O)N1CCC(Cc2ccc(C(=O)Nc3nc4ccccc4s3)cc2)CC1` [Compound 1-64, tert-butyl 4-(4-(benzol[d]thiazol-2-ylcarbamoyl)benzyl)piperidine-1-carboxylate], with 7%; and `O=C(Nc1nc2ccccc2s1)c1ccc(C=C2CCNCC2)cc1` [Compound 1-65, N-(benzo[d]thiazol-2-yl)-4-(piperidin-4-ylidenemethyl)benzamide], with 5%.
The figure for `O=C(Nc1nc2ccccc2s1)c1ccc(CC2CCNCC2)cc1` [Compound 1-66, N-(benzo[d]thiazol-2-yl)-4-(piperidin-4-ylmethyl)benzamide] is 16%; for `CCNC(=O)N1CCC(=Cc2ccc(C(=O)Nc3nc4ccccc4s3)cc2)CC1` [Compound 1-67, 4-(4-(benzo[d]thiazol-2-ylcarbamoyl)benzylidene)-N-ethylpiperidine-1-carboxamide] it is 92%; for `O=C(Nc1nc2ccccc2s1)c1ccc(C=C2CCN(C(=O)Nc3ccccc3)CC2)cc1` [Compound 1-68, 4-(4-(benzo[d]thiazol-2-ylcarbamoyl)benzylidene)-N-phenylpiperidine-1-carboxamide] it is 100%.

The values are drawn from patent publication US20240116897A1, “BENZOTHIAZOLE AND BENZIMIDAZOLE DERIVATIVES, PHARMACEUTICALLY ACCEPTABLE SALT THEREOF, PREPARATION METHOD THEREFOR, AND PHARMACEUTICAL COMPOSITION COMPRISING SAME AS ACTIVE INGREDIENT” (KOREA RESEARCH INSTITUTE OF CHEMICAL TECHNOLOGY, priority 2021, published 2024).
